PMC8222254, “Self-assembly of an anion receptor with metal-dependent kinase inhibition and potent in vitro anti-cancer properties” (Nature Communications, 2021)
Where “and” joins values, the source holds several entries; their conditions need not be identical. Equal entries are not always repeated.

Assays:
Experiment in all cases: Kinase inhibition screen, cell-free 33P ATP assay at 10 μM
Type in all cases: biochemical
[1] = target: 140 purified human kinases (Homo sapiens, UniProt P53355)
In short: (§1)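 Each complex tested in duplicate at 10 μM; cell-free radiometric assay using ^33P ATP on purified enzymes. Hits mapped by HGNC symbol onto the kinome tree.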

[2] = target: T1, 140 purified human kinases (Homo sapiens, UniProt P54753)
T1 sequence (P54753 34-998): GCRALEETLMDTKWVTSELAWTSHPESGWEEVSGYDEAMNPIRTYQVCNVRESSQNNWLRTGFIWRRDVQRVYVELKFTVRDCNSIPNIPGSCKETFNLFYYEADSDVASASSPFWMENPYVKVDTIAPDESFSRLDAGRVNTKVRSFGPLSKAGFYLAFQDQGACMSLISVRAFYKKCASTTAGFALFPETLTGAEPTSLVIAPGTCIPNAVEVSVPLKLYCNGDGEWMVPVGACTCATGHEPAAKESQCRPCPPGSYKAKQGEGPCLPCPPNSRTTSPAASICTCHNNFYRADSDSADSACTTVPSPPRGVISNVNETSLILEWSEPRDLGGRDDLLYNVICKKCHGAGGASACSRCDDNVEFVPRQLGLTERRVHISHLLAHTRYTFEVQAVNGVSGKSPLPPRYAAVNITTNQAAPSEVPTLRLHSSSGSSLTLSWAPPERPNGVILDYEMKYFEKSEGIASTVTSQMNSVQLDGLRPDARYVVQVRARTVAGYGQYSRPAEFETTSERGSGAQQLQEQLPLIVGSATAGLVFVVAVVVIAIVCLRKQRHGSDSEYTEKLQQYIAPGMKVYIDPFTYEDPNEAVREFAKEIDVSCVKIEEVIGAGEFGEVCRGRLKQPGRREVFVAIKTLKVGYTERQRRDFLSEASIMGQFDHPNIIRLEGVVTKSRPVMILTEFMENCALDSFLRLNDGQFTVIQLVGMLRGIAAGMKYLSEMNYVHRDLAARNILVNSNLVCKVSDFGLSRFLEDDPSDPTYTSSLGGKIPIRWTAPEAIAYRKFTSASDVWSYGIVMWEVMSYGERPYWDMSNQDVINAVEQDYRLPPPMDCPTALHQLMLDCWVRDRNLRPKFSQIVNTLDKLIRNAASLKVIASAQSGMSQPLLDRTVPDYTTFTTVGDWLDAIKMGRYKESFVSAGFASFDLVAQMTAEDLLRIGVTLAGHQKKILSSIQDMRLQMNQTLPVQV
In short: as §1

[3] = target: 140 purified human kinases (Homo sapiens, UniProt Q8N4C8)
In short: as §1

[4] = target: 140 purified human kinases (Homo sapiens, UniProt Q86V86)
In short: as §1

[5] = target: T2, 140 purified human kinases (Homo sapiens, UniProt Q13188)
T2 sequence (Q13188 1-491): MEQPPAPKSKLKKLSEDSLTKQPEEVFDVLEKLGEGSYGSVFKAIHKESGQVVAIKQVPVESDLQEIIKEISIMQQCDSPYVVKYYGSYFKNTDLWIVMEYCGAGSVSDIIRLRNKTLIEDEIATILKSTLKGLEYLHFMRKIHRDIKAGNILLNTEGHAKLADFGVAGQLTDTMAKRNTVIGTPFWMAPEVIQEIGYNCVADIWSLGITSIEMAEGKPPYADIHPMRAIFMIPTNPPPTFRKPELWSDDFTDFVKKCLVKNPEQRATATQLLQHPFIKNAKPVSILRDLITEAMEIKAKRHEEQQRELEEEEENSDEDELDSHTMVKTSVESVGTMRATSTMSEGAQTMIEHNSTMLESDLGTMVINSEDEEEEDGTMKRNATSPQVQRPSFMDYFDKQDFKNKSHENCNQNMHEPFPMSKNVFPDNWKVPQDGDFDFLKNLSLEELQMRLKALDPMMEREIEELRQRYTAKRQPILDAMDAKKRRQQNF
In short: as §1

[6] = target: 140 purified human kinases (Homo sapiens, UniProt P17948); settings: VEG-FR
In short: as §1

[7] = target: 140 purified human kinases (Homo sapiens, UniProt P24941); settings: CDK2-Cyclin A
In short: as §1

[8] = target: 140 purified human kinases (Homo sapiens, UniProt Q9Y4K4)
Sequence of 140 purified human kinases (Homo sapiens, UniProt Q9Y4K4) (Q9Y4K4 whole entry): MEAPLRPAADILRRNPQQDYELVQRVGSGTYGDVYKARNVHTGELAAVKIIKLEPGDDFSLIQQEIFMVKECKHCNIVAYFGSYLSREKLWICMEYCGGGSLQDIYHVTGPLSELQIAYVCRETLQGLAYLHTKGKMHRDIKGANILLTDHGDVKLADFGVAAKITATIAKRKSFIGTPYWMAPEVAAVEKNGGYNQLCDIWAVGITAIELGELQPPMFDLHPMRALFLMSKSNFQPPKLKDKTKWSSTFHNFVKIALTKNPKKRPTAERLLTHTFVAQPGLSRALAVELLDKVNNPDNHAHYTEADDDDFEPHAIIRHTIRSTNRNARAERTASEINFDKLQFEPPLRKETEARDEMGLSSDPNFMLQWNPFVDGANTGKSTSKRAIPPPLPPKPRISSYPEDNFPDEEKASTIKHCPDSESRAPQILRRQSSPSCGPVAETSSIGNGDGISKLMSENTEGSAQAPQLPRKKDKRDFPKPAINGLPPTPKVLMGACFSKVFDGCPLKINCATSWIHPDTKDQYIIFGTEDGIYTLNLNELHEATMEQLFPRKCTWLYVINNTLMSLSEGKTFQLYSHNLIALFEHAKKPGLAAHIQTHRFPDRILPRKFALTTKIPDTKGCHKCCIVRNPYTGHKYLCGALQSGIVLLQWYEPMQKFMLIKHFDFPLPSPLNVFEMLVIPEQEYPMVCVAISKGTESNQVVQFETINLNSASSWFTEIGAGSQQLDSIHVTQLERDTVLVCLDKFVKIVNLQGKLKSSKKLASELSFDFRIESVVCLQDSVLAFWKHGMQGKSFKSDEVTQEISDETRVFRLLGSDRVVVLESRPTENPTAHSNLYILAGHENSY
In short: as §1

[9] = target: 140 purified human kinases (Homo sapiens, UniProt Q02763)
Sequence of 140 purified human kinases (Homo sapiens, UniProt Q02763) (Q02763 23-1124): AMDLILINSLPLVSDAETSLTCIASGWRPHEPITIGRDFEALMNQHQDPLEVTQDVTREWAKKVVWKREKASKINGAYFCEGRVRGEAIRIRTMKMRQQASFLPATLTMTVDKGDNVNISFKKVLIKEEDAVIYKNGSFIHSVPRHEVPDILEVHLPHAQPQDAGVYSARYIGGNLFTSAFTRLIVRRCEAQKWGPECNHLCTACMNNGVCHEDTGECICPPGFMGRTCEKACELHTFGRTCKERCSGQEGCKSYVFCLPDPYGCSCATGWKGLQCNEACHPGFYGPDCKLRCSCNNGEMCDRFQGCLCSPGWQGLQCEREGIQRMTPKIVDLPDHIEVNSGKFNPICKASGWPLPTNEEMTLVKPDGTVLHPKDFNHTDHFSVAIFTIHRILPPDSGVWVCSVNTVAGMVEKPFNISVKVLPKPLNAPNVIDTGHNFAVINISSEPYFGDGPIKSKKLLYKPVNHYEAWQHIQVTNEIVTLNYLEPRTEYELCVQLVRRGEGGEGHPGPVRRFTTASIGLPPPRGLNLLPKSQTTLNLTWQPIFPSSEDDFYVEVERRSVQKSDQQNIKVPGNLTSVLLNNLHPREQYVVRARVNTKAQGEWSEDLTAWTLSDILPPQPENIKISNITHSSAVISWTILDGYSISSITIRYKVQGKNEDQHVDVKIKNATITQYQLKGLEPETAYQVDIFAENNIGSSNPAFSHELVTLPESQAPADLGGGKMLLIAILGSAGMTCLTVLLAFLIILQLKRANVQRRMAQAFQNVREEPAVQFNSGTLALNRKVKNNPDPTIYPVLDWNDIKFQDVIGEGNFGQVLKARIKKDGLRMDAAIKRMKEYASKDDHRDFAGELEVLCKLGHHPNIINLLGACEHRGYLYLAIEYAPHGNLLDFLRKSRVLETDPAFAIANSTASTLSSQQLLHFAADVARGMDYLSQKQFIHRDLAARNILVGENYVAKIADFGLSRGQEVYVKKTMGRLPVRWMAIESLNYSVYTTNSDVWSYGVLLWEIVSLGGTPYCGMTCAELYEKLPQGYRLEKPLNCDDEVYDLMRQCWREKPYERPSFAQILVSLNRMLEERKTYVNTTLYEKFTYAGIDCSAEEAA
In short: as §1

[10] = target: 140 purified human kinases (Homo sapiens, UniProt P07947)
Sequence of 140 purified human kinases (Homo sapiens, UniProt P07947) (P07947 whole entry): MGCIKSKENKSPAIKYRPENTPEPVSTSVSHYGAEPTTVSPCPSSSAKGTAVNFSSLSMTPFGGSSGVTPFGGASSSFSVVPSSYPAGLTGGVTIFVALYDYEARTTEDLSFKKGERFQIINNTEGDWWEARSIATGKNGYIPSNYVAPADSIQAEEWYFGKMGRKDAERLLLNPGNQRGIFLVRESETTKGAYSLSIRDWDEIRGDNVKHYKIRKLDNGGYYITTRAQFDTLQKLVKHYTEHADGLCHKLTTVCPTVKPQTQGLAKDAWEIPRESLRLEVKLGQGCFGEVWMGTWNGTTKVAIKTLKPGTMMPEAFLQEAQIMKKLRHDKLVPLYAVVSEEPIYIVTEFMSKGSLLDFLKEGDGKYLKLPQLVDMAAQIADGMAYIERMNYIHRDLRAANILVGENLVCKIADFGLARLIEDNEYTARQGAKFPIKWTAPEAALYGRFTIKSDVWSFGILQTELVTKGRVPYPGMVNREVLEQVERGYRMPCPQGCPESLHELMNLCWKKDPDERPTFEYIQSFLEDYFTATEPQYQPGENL
In short: as §1

Sequence of 140 purified human kinases (Homo sapiens, UniProt P53355) (P53355 whole entry): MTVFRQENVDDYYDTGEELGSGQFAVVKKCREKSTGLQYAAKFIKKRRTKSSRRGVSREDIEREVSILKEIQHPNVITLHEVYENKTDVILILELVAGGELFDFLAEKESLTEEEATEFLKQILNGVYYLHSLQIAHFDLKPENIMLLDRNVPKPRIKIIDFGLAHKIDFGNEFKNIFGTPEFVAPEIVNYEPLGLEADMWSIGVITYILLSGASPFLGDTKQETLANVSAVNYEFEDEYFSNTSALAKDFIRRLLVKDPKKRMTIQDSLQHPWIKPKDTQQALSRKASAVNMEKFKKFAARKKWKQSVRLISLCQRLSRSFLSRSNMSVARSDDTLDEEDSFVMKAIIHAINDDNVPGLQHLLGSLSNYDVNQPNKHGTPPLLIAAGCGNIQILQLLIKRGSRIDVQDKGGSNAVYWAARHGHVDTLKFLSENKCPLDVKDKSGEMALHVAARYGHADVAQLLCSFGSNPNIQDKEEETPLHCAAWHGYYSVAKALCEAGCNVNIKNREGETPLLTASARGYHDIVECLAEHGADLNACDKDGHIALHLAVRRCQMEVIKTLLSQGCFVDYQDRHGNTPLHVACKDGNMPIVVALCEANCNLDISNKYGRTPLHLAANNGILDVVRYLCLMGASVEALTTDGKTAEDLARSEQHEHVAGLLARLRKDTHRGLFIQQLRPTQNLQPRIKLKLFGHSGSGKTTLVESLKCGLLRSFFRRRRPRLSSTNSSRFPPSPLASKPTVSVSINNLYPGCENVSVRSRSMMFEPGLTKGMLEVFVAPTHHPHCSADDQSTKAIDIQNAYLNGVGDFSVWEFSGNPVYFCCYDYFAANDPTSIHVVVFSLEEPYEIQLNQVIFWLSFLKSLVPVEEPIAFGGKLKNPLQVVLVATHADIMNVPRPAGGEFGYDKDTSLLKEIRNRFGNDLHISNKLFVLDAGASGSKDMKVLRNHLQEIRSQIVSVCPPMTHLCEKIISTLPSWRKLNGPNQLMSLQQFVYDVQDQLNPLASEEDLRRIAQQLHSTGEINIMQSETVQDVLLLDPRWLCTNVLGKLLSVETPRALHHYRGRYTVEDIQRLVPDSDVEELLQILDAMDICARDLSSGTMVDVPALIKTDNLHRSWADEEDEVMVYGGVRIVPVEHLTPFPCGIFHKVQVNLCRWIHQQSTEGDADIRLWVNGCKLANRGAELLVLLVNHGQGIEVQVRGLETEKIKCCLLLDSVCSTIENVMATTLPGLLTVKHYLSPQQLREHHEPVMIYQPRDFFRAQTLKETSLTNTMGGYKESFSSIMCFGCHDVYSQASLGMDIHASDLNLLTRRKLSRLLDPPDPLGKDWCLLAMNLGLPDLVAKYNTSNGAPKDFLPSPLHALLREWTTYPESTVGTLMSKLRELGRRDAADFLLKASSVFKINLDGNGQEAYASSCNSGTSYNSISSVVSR

## CC(=O)[O-].CC(=O)[O-].CC(=O)[O-].CC(=O)[O-].CC(=O)[O-].CC(=O)[O-].[Zn+2].[Zn+2].[Zn+2].c1ccc(-c2csc(NCCN(CCNc3nc(-c4ccccn4)cs3)CCNc3nc(-c4ccccn4)cs3)n2)nc1.c1ccc(-c2csc(NCCN(CCNc3nc(-c4ccccn4)cs3)CCNc3nc(-c4ccccn4)cs3)n2)nc1 [[L2Zn3]6+]
[1]; DAPK1
  % Activation, Mean value: 16%
  % Inhibition, Mean: -16%
  % Inhibition, Run 1 / Run 2: -12% and -21%
  mean % activity: 116%
[1]; DAPK1, 10 µM
  % Activity Run 1: 112.0%
  % Activity Run 2: 121.0%
[1]; DAPK1, duplicate runs
  % activity: 112% and 121%
[2]; EPH-B3
  % Inhibition, Mean: 51%
  % Inhibition, Run 1 / Run 2: 59% and 44%
  mean % activity: 49%
[2]; EPH-B3, duplicate runs
  % activity: 41% and 56%
[3]; MINK1
  % Inhibition, Mean: 67%
  % Inhibition, Run 1 / Run 2: 72% and 62%
  mean % activity: 33%
[3]; MINK1, duplicate runs
  % activity: 28% and 38%
[4]; PIM3
  % Inhibition, Mean: 36%
  % Inhibition, Run 1 / Run 2: 38% and 35%
  mean % activity: 64%
[4]; PIM3, duplicate runs
  % activity: 62% and 65%
[5]; MST2
  % Inhibition, Mean: 10%
  % Inhibition, Run 1 / Run 2: 14% and 6%
  mean % activity: 90%
[5]; MST2, duplicate runs
  % activity: 86% and 94%
[6]
  % Inhibition, Mean: 17%
  mean % activity: 83%
[6]; duplicate runs
  % activity: 73% and 93%
[7]
  % Inhibition, Mean: 1.8%
  mean % activity: 98%
[7]; duplicate runs
  % activity: 93% and 103%
[8]; MAP4K5
  % Inhibition, Mean: 60%
  % Inhibition, Run 1 / Run 2: 60% and 59%
  mean % activity: 40%
[8]; MAP4K5, duplicate runs
  % activity: 40% and 41%
[9]; TIE2
  % Inhibition, Mean: 85%
  % Inhibition, Run 1 / Run 2: 92% and 78%
  mean % activity: 15%
[9]; TIE2, 10 µM
  % Activity inhibition Mean: 84.5%
  % Activity inhibition Run 1: 92%
  % Activity inhibition Run 2: 77%
  % Activity remaining Run 1: 8%
  % Activity remaining Run 2: 23%
[10]; YES1
  % Inhibition, Mean: 8%
  % Inhibition, Run 1 / Run 2: 7% and 8%
  mean % activity: 92%
[10]; YES1, duplicate runs
  % activity: 93% and 92%

## [Cu+2].[Cu+2].[Cu+2].c1ccc(-c2csc(NCCN(CCNc3nc(-c4ccccn4)cs3)CCNc3nc(-c4ccccn4)cs3)n2)nc1.c1ccc(-c2csc(NCCN(CCNc3nc(-c4ccccn4)cs3)CCNc3nc(-c4ccccn4)cs3)n2)nc1 [[L2Cu3]6+]
[1]; DAPK1
  % Activation, Mean value: 1.5%
  % Inhibition Run 1: 6.2%
  % Inhibition Run 2: -9.2%
  % Inhibition, Mean: -1.5%
  mean % activity: 102%
[1]; DAPK1, Run 1
  % activity: 93.8%
[1]; DAPK1, Run 2
  % activity: 109.2%
[2]; EPH-B3
  % Inhibition Run 1: 12.5%
  % Inhibition Run 2: 19.2%
  % Inhibition, Mean: 16%
  mean % activity: 84%
[2]; EPH-B3, Run 1
  % activity: 87.5%
[2]; EPH-B3, Run 2
  % activity: 80.8%
[3]; MINK1
  % Inhibition Run 1: 70%
  % Inhibition Run 2: 78.2%
  % Inhibition, Mean: 74%
  mean % activity: 26%
[3]; MINK1, Run 1
  % activity: 30%
[3]; MINK1, Run 2
  % activity: 21.8%
[4]; PIM3
  % Inhibition Run 1: 54.7%
  % Inhibition Run 2: 54.9%
  % Inhibition, Mean: 55%
  mean % activity: 45%
[4]; PIM3, Run 1
  % activity: 45.3%
[4]; PIM3, Run 2
  % activity: 45.1%
[5]; MST2
  % Inhibition Run 1: 38.8%
  % Inhibition Run 2: 41.9%
  % Inhibition, Mean: 40%
  mean % activity: 60%
[5]; MST2, Run 1
  % activity: 61.2%
[5]; MST2, Run 2
  % activity: 58.1%
[6]
  % Inhibition Run 1: 28.1%
  % Inhibition Run 2: 27.2%
  % Inhibition, Mean: 28%
  mean % activity: 72%
[6]; Run 1
  % activity: 71.9%
[6]; Run 2
  % activity: 72.8%
[7]
  % Activation, Mean value: 9.5%
  % Inhibition Run 1: -10.1%
  % Inhibition Run 2: -8.9%
  % Inhibition, Mean: -9.5%
  mean % activity: 110%
[7]; Run 1
  % activity: 110.1%
[7]; Run 2
  % activity: 108.9%
[7]; 10 µM
  % Activity Run 1: 110.10%
  % Activity Run 2: 108.90%
[8]; MAP4K5
  % Inhibition Run 1: 54.5%
  % Inhibition Run 2: 51.4%
  % Inhibition, Mean: 53%
  mean % activity: 47%
[8]; MAP4K5, Run 1
  % activity: 45.5%
[8]; MAP4K5, Run 2
  % activity: 48.6%
[9]; TIE2
  % Inhibition Run 1: 73.2%
  % Inhibition Run 2: 55%
  % Inhibition, Mean: 64%
  mean % activity: 36%
[9]; TIE2, Run 1
  % activity: 26.8%
[9]; TIE2, Run 2
  % activity: 45%
[10]; YES1
  % Inhibition Run 1: 12.4%
  % Inhibition Run 2: -9%
  % Inhibition, Mean: 1.7%
  mean % activity: 98%
[10]; YES1, Run 1
  % activity: 87.6%
[10]; YES1, Run 2
  % activity: 109%
